According to patent US20260116910A1, “POLYCYCLIC COMPOUNDS AND METHODS THEREOF” (HEPAITECH (BEIJING) BIOPHARMA TECHNOLOGY CO., LTD., priority 2021, published 2026):
Where two headings read alike, the source gives them in different places.

How the values were obtained:
[1] = target: T1, human FXR (NR1H4) (Homo sapiens, UniProt Q96RI1); assay: Human FXR (NR1H4) agonist assessment, FXRE-NanoLuc reporter in HEK293T cells; type: cell-based; conditions: for EC50: read-out: EC50
T1 sequence (Q96RI1 1-476 isoform Q96RI1-1): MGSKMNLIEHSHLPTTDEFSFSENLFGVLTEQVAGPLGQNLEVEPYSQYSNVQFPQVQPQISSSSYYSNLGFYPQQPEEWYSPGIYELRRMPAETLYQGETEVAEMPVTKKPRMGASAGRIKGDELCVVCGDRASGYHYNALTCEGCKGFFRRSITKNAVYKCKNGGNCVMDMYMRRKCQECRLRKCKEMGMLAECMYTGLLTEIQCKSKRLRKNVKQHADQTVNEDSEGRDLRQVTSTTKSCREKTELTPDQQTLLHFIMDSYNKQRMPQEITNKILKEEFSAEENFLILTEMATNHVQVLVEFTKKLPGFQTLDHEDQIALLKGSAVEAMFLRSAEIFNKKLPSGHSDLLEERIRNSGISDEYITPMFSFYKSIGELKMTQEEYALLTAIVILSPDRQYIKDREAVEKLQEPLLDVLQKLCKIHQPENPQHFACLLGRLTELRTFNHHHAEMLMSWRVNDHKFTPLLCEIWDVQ
Summary of the method: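 HEK293T cells stably expressing human FXR with an FXRE-NanoLuc reporter were treated with compounds for 24 hr at 37 °C, with 0.01% DMSO as negative control. Medium was read for luminescence after 5 min with coelenterazine. EC50 was fitted by sigmoid to concentration-response data.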

[2] = target: MRGPRX4 (Homo sapiens, UniProt Q96LA9); assay: MRGPRX4 activation, Fluo-8 Ca2+ FLIPR assay in HEK293T cells stably expressing MRGPRX4; type: cell-based; conditions: for EC50: MRGPRX4 activation, Ca2+ fluorescence, no activation in tested range reported as III, read-out: Activity (EC50 μM)
Summary of the method: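 Cells seeded overnight to >95% confluence, loaded 40-60 min at room temperature with 2 μM Fluo-8 AM, then kept in HHBS. Baseline read 30 s, compound added, signal followed 150 s more.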

[3] = FXR activation, HEK293T FXRE-NanoLuc reporter, 24 hr

Sequence of MRGPRX4 (Q96LA9 whole entry): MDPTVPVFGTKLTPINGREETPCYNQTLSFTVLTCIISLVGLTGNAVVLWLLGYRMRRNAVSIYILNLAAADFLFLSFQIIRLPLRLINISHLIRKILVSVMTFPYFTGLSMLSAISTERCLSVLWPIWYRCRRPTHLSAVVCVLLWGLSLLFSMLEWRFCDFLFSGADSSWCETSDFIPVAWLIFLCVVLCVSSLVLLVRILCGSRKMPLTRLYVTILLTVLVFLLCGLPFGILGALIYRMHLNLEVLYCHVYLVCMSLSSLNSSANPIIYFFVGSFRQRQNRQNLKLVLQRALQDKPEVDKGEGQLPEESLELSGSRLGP

Compound | Efficacy (maximum measured induction of NanoLuc, normalized to CDCA set as 100%) [1, 3] | EC50 [1, 3] [µM] | MRGPRX4 activation, fluorescence change (dF/F0), Average ([2]; Conc. (Log[M]) −4) | MRGPRX4 activation, fluorescence change (dF/F0), Average ([2]; Conc. (Log[M]) −4.5) | MRGPRX4 activation, fluorescence change (dF/F0), Average ([2]; Conc. (Log[M]) −5) | MRGPRX4 activation, fluorescence change (dF/F0), Average ([2]; Conc. (Log[M]) −5.5) | MRGPRX4 activation, fluorescence change (dF/F0), Average ([2]; Conc. (Log[M]) −6) | MRGPRX4 activation, fluorescence change (dF/F0), Average ([2]; Conc. (Log[M]) −7) | MRGPRX4 activation, fluorescence change (dF/F0), Average ([2]; Conc. (Log[M]) −8) | MRGPRX4 activation, fluorescence change (dF/F0), Average ([2]; Conc. (Log[M]) −9) | EC50 [2] [µM] | Efficacy (maximum measured induction of NanoLuc, normalized to CDCA set as 100%) [1]
C[C@H](CCCC(=O)O)[C@H]1CC[C@H]2[C@@H]3CC[C@@H]4C[C@H](O)CC[C@]4(C)[C@H]3C[C@H](O)[C@]12C [RC-2] | B (300%<efficacy <=400%) | 1 to 10 | 0.242 | 0.159 | 0.126 | 0.034 | 0.017 | −0.012 | −0.010 | −0.018 | < 50 | 
C[C@]12CC[C@@H](O)C[C@H]1CC[C@@H]1[C@@H]2C[C@H](O)[C@]2(C)[C@@H](CCCCCC(=O)O)CC[C@@H]12 [RC-3] | B (300%<efficacy <=400%) | 1 to 10 | 0.225 | 0.233 | 0.182 | 0.026 | −0.007 | −0.027 | −0.008 | −0.013 | < 50 | 
C[C@H](CCC(=O)O)[C@H]1CC[C@H]2[C@@H]3CC[C@@H]4C[C@@H](O)CC[C@]4(C)[C@H]3C[C@H](O)[C@]12C [RC-5] | B (300%<efficacy <=400%) | 1 to 10 | 0.300 | 0.228 | 0.166 | 0.030 | −0.009 | −0.017 | −0.021 | −0.007 |  | 
C[C@H](CCC(=O)O)[C@H]1CC[C@H]2[C@@H]3CC[C@@H]4C[C@@H](O)CC[C@]4(C)[C@H]3C[C@@H](O)[C@]12C [RC-6] | B (300%<efficacy <=400%) | 1 to 10 | 0.259 | 0.208 | 0.145 | 0.009 | −0.013 | −0.007 | −0.015 | −0.008 |  | 
C[C@H](CC/C=C/C(=O)O)[C@H]1CC[C@H]2[C@@H]3CC[C@@H]4C[C@H](O)CC[C@]4(C)[C@H]3C[C@H](O)[C@]12C [RC-7] | C (100%<efficacy <=300%) | 1 to 10 | 0.049 | 0.030 | −0.027 | −0.038 | −0.035 | 0.007 | −0.030 | −0.005 | < 50 | 
CC[C@H]1[C@@H](O)[C@@H]2[C@H](CC[C@]3(C)[C@@H]([C@H](C)CCC(=O)O)CC[C@@H]23)[C@@]2(C)CCCC[C@@H]12 [compound 10] |  | 1 to 10 | 0.019 | −0.031 | −0.037 | −0.032 | −0.064 | −0.043 | −0.045 | −0.048 | > 100 | C (key: A: efficacy >400%; B: 300%<efficacy <=400%; C: 100%<efficacy <=300%; D: efficacy <=100%)
